Source: the supplement of paper PMC13380429

Tests used:
Details in all cases: 72 h
U2OS [1] = test: cell viability relative to DMSO; higher = less toxic
Vero E6 [2] = test: as above
Calu-3 [3] = test: as above
Caco-2 [4] = test: as above
HepG2 [5] = test: as above
U2OS [6] = test: drug sensitivity score (DSS) for viability; higher = more toxic; extreme values may be limits of the assay
Vero E6 [7] = test: as above
Calu-3 [8] = test: as above
Caco-2 [9] = test: as above
HepG2 [10] = test: as above
U2OS [11] = test: relative viability EC50 (midpoint between 100% and the lowest measured viability); higher = less toxic
Vero E6 [12] = test: as above
Calu-3 [13] = test: as above
Caco-2 [14] = test: as above
HepG2 [15] = test: as above

Compound	cell viability (U2OS [1]; 1 nM) [%]	cell viability (U2OS [1]; 10 nM) [%]	cell viability (U2OS [1]; 100 nM) [%]	cell viability (U2OS [1]; 1000 nM) [%]	cell viability (U2OS [1]; 10000 nM) [%]	cell viability (Vero E6 [2]; 1 nM) [%]	cell viability (Vero E6 [2]; 10 nM) [%]	cell viability (Vero E6 [2]; 100 nM) [%]	cell viability (Vero E6 [2]; 1000 nM) [%]	cell viability (Vero E6 [2]; 10000 nM) [%]	cell viability (Calu-3 [3]; 1 nM) [%]	cell viability (Calu-3 [3]; 10 nM) [%]	cell viability (Calu-3 [3]; 100 nM) [%]	cell viability (Calu-3 [3]; 1000 nM) [%]	cell viability (Calu-3 [3]; 10000 nM) [%]	cell viability (Caco-2 [4]; 1 nM) [%]	cell viability (Caco-2 [4]; 10 nM) [%]	cell viability (Caco-2 [4]; 100 nM) [%]	cell viability (Caco-2 [4]; 1000 nM) [%]	cell viability (Caco-2 [4]; 10000 nM) [%]	cell viability (HepG2 [5]; 1 nM) [%]	cell viability (HepG2 [5]; 10 nM) [%]	cell viability (HepG2 [5]; 100 nM) [%]	cell viability (HepG2 [5]; 1000 nM) [%]	cell viability (HepG2 [5]; 10000 nM) [%]	drug sensitivity score (U2OS [6])	drug sensitivity score (Vero E6 [7])	drug sensitivity score (Calu-3 [8])	drug sensitivity score (Caco-2 [9])	drug sensitivity score (HepG2 [10])	relative viability EC50 (U2OS [11]) [µM]	relative viability EC50 (Vero E6 [12]) [µM]	relative viability EC50 (Calu-3 [13]) [µM]	relative viability EC50 (Caco-2 [14]) [µM]	relative viability EC50 (HepG2 [15]) [µM]
CCC(CC)O[C@@H]1C=C(C(=O)O)C[C@H](N)[C@H]1NC(C)=O [oseltamivir-carboxylate]	100	99.8	97.2	102	105	98.4	99.7	98.1	95.9	104	98.9	98.6	98.6	98.2	103	89.8	96.8	99.7	99.5	101	104	99.3	108	95.5	115	0	0	0	0	0	> 10	> 10	> 10	> 10	> 10
O=C1CCCCCCCCCCCCCCO1 [oxacyclohexadecan-2-one]	101	98.9	95.8	101	98	102	106	102	88.8	102	93.2	99.1	91.9	90	90.7	103	95.1	90	92.8	102	109	93.8	105	86	97.7	0	0	0	0	0	> 10	> 10	> 10	> 10	> 10
O=c1[nH]c2ccccc2n1CCCN1CCN(C(c2ccccc2)c2ccccc2)CC1 [oxatomide]	100	102	94.1	97.1	106	106	93.1	99.9	91.7	95.6	107	96.1	105	99.2	101	117	98.6	99.1	112	83.7	97.7	104	114	81.7	92.2	0	0	0	0.1	1.9	> 10	> 10	> 10	> 10	> 10
Cc1cc(C(C)(C)C)c(O)c(C)c1CC1=NCCN1 [oxymetazoline]	100	99.5	98.9	100	96.4	100	106	102	95.7	98.7	92.1	92.3	94.5	101	107	97.6	93.7	80.4	96.6	83.6	103	87.9	104	84	88	0	0	0	0.9	1.5	> 10	> 10	> 10	> 10	> 10
CCC[C@H](N[C@@H](C)C(=O)N1[C@H](C(=O)O)C[C@@H]2CCCC[C@@H]21)C(=O)O [perindoprilat]	95.2	98.5	94.6	105	92.2	104	104	100	95.3	97.8	100	96.1	90.6	103	93.2	103	93.9	107	96.8	138	104	96.3	103	105	96.5	0	0	0	0	0	> 10	> 10	> 10	> 10	> 10
CC(C)NCC(O)c1ccc2ccccc2c1 (stereo not given) [pronethalol]	98.5	105	97.7	102	95.5	112	106	100	94.3	98.7	91.1	99	101	93.8	93.8	89.8	97.7	87.4	90.8	93.1	105	91.6	104	87	106	0	0	0	0	0	> 10	> 10	> 10	> 10	> 10
Cc1oc(=O)oc1CN1CCN(c2cc3c(cc2F)c(=O)c(C(=O)O)c2n3C(C)S2)CC1 (stereo not given) [prulifloxacin]	95.8	99.8	100	95.7	100	102	111	115	94.5	97.3	104	95.8	99.4	96.2	97.3	94.8	91.6	120	103	97.8	107	112	110	106	97.2	0	0	0	0	0	> 10	> 10	> 10	> 10	> 10
